What all share (format): cell-based
The subject of experiment [1] is tumor cells. The experiment in a line: Hoechst 33342 nuclear staining (48 h read-out). The procedure:
(§1) A) Hoechst 33342 Nuclear Staining
(§2) This assay is performed in 96 well tissue culture plates. Appropriate number of cells (adherent cells: 3-5*10^3, suspension cells: 8-10*10^3) are being seeded out in 80 μl complete medium. Adherent cells are incubated for 24 h for proper spreading out before addition of test compounds while suspension cells are immediately treated with test compounds after seeding out. The test compounds are added in 20 μl complete medium containing max 5% DMSO. The final compound concentrations in the assays are in the range of 0.001 μM-10 μM. After 24 h or 48 h incubation at culture conditions, 10 μl medium containing Hoechst 33342 dye (Sigma B-2261) at 2-5 μg/ml are added to each well. The assay plates are then further incubated for 30 minutes and subsequently analyzed with a standard inverted fluorescence microscope.
(§3) The readout allows the determination of the fraction of apoptotic nuclei as well as other morphological criteria specific for apoptosis as a function of the treatment. The scores A, B, C and D are explained at the end of the Table.

A short description of experiment [2]: Hoechst 33342 nuclear staining (48 h read-out). As to the method: as §1, §2, §3
Experiment [3] relates to tumor cells. The experiment in a line: MTS proliferation assay (72 h read-out). The procedure: (§4) B) MTS Proliferation Assay
(§5) The assay is performed in 96 well tissue culture plates. The cells (range: 1.5*10^3-10^4) are seeded out in 80 μl complete medium 24 h prior to compound treatment. The test compounds are added in 20 μl complete medium containing max 5% DMSO. The final compound concentrations in the assays are in the range of 0.001 μM-10 μM. The assay plates are incubated for 72 h at culture conditions. The MTS reagent is prepared according to the manufacturer's protocol (Promega G1111). 20 μl MTS reagent are added to each well; the assay plates are quickly spun and incubated for another 3 h at culture conditions. Subsequently, the plates are shortly shaked and absorption measured with a microplate-reader at 492 nm. The scores A, B, C and D are explained at the end of the Table.
(Tetrazolium dyes change colour on reduction, which living cells bring about.)

Experiment [4] is described as follows: MTS proliferation assay (72 h read-out). Particulars: MRC5 cells. As to the method: as §4, §5
Experiment [5] relates to tumor cells. Kind of experiment: Mitochondrial membrane potential, JC-1 (read-out 48 h). Particulars: JC-1, 48 h. As to the method: (§6) D) Mitochondrial Membrane Potential
as §2, with “The final compound concentrations in the assays are in the range of 0.001 μM-10 μM.” left out, “JC-1 (Molecular Probes, T-3168)” for “Hoechst 33342 dye (Sigma B-2261)”, “microscope by using the FITC and TRITC filters.” for “microscope.”
(§7) The readout allows the determination of the fraction of cells which show a dissipation of the mitochondrial membrane potential strongly indicating an apoptotic cell death as a function of the treatment. The scores A, B, C and D are explained at the end of the Table.

Assay in experiment [6]: as above
Particulars: PBL, JC-1, 48 h. As to the method: as §6
as §2, with “The final compound concentrations in the assays are in the range of 0.001 μM-10 μM.” left out, “JC-1 (Molecular Probes, T-3168)” for “Hoechst 33342 dye (Sigma B-2261)”, “microscope by using the FITC and TRITC filters.” for “microscope.”
as §7

Where [7] appears, read: HeLa cells, read-out: Hoechst 33342 nuclear staining EC50, HeLa.
The mark [8] stands for this setting: Jily cells, read-out: Hoechst 33342 nuclear staining EC50, Jily.
The mark [9] stands for this setting: Jurkat cells, read-out: Hoechst 33342 nuclear staining EC50, Jurkat.
Where [10] appears, read: MRC5 cells, read-out: Hoechst 33342 nuclear staining EC50, MRC5.
Where [11] appears, read: PBL, read-out: Hoechst 33342 nuclear staining EC50, PBL.
Where [12] appears, read: HT1080 cells, read-out: MTS proliferation assay IC50, HT1080.
Setting [13] is: HeLa cells, read-out: MTS proliferation assay IC50, HeLa.
[14] abbreviates: Jily cells, read-out: MTS proliferation assay IC50, Jily.
Setting [15] is: Jurkat cells, read-out: MTS proliferation assay IC50, Jurkat.
Setting [16] is: HeLa cells, read-out: Mitochondrial membrane potential (read-out 48 h) HeLa.
The mark [17] stands for this setting: Jily cells, read-out: Mitochondrial membrane potential (read-out 48 h) Jily.
Where [18] appears, read: Jurkat cells, read-out: Mitochondrial membrane potential (read-out 48 h) Jurkat.
Setting [19] is: MCF7 cells, read-out: Mitochondrial membrane potential (read-out 48 h) MCF7.
Setting [20] is: Homo sapiens, HeLa cells, read-out: Hoechst 33342 nuclear staining EC50, HeLa.
Setting [21] is: Homo sapiens, Jurkat cells, read-out: Hoechst 33342 nuclear staining EC50, Jurkat.
The mark [22] stands for this setting: Homo sapiens, MRC5 cells, read-out: Hoechst 33342 nuclear staining EC50, MRC5.
Setting [23] is: Homo sapiens, HT-1080, HT1080 cells, read-out: MTS proliferation assay IC50, HT1080.
Where [24] appears, read: Homo sapiens, HeLa cells, read-out: MTS proliferation assay IC50, HeLa.
[25] abbreviates: Homo sapiens, HeLa cells, read-out: Mitochondrial membrane potential (read-out 48 h) HeLa.
The mark [26] stands for this setting: Homo sapiens, Jurkat cells, read-out: Mitochondrial membrane potential (read-out 48 h) Jurkat.
The mark [27] stands for this setting: Homo sapiens, MCF7 cells, read-out: Mitochondrial membrane potential (read-out 48 h) MCF7.
The mark [28] stands for this setting: Homo sapiens, Jurkat cells, read-out: MTS proliferation assay IC50, Jurkat.

SMILES strings stand for the structures. Where two headings read alike, the source gives them in different places.

As for `CN(C)CCOc1ccccc1C(=O)c1oc2ccc(Cl)cc2c1N` [Example 11], the EC50 in experiment [1] (setting [7]), in experiment [1] (setting [8]), in experiment [1] (setting [9]), in experiment [2] (setting [10]), in experiment [2] (setting [11]) and in experiment [5] (setting [16]) was greater than 1000 nM each time. For the same molecule, the EC50 in experiment [5] (setting [17]), in experiment [5] (setting [18]), in experiment [5] (setting [19]) and in experiment [6] was greater than 1000 nM in each case. Moreover, the IC50 in experiment [3] (setting [12]), in experiment [3] (setting [13]), in experiment [3] (setting [14]), in experiment [3] (setting [15]) and in experiment [4] was greater than 1000 nM in each case.

Consider `CCOc1ccc(OCC)c(C(=O)c2oc3ccc(Cl)cc3c2N)c1` [Example 19], for which the EC50 in experiment [1] (setting [20]) was 100 to 1000 nM; in experiment [1] (setting [21]) it was 100 to 1000 nM; in experiment [1] (setting [8]) it was 100 to 1000 nM; in experiment [2] (setting [22]) it was 100 to 1000 nM; in experiment [2] (setting [11]), greater than 1000 nM; in experiment [5] (setting [25]), 100 to 1000 nM. Besides, the EC50 was 100 to 1000 nM in experiment [5] (setting [26]), 100 to 1000 nM in experiment [5] (setting [27]), 100 to 1000 nM in experiment [5] (setting [17]) and greater than 1000 nM in experiment [6]. Besides, the IC50 in experiment [3] (setting [23]), in experiment [3] (setting [24]), in experiment [3] (setting [14]) and in experiment [4] (Homo sapiens) was 100 to 1000 nM throughout.

Take `CCOc1ccc(-n2cccc2)cc1C(=O)c1oc2ccc(Cl)cc2c1N` [Example 22]: the EC50 in experiment [1] (setting [7]) was 100 to 1000 nM; in experiment [1] (setting [8]), 100 to 1000 nM; in experiment [1] (setting [9]), 100 to 1000 nM; in experiment [2] (setting [10]) it was 100 to 1000 nM; in experiment [2] (setting [11]) it was greater than 1000 nM; in experiment [5] (setting [16]) it was 100 to 1000 nM. In addition, the EC50 in experiment [5] (setting [17]) is 100 to 1000 nM; in experiment [5] (setting [18]), 100 to 1000 nM; in experiment [5] (setting [19]), greater than 1000 nM; in experiment [6], greater than 1000 nM. For the same molecule, the IC50 in experiment [3] (setting [12]), in experiment [3] (setting [13]), in experiment [3] (setting [14]), in experiment [3] (setting [15]) and in experiment [4] was 100 to 1000 nM each time.

Turning to `CCOc1ccccc1C(=O)c1oc2ccc(Cl)cc2c1O` [Example 32, 5-Chloro-2-(2-ethoxybenzoyl)-3-hydroxybenzofuran], the EC50 in experiment [1] (setting [20]), in experiment [1] (setting [21]), in experiment [1] (setting [8]), in experiment [2] (setting [22]), in experiment [2] (setting [11]) and in experiment [5] (setting [25]) was greater than 1000 nM in each case. Besides, the EC50 in experiment [5] (setting [26]), in experiment [5] (setting [27]), in experiment [5] (setting [17]) and in experiment [6] was greater than 1000 nM throughout. In addition, the IC50 in experiment [3] (setting [23]), in experiment [3] (setting [24]), in experiment [3] (setting [28]), in experiment [3] (setting [14]) and in experiment [4] (Homo sapiens) was greater than 1000 nM each time.

Take `COc1ccc2oc(C(=O)c3cccnc3N3CCOCC3)cc2c1` [Example 39, 5-Methoxy-2-(2-morpholino-3-pyridylcarbonyl)-benzofuran]: the EC50 is 10 to 100 nM in experiment [1] (setting [20]); 10 to 100 nM in experiment [1] (setting [21]); 10 to 100 nM in experiment [1] (setting [8]); 10 to 100 nM in experiment [2] (setting [22]); greater than 1000 nM in experiment [2] (setting [11]); 10 to 100 nM in experiment [5] (setting [25]). The EC50 in experiment [5] (setting [26]) was 10 to 100 nM; in experiment [5] (setting [27]) it was 100 to 1000 nM; in experiment [5] (setting [17]) it was 10 to 100 nM; in experiment [6], greater than 1000 nM. Further, the IC50 in experiment [3] (setting [23]), in experiment [3] (setting [24]), in experiment [3] (setting [28]), in experiment [3] (setting [14]) and in experiment [4] (Homo sapiens) was 10 to 100 nM each time.

In the case of `CCOc1ccccc1C(=O)c1oc2ccc(I)cc2c1N` [Example 43], the EC50 in experiment [1] (setting [7]), in experiment [1] (setting [8]), in experiment [1] (setting [9]), in experiment [2] (setting [10]), in experiment [2] (setting [11]) and in experiment [5] (setting [16]) was greater than 1000 nM in each case. For the same molecule, the EC50 in experiment [5] (setting [17]), in experiment [5] (setting [18]), in experiment [5] (setting [19]) and in experiment [6] was greater than 1000 nM throughout. Moreover, the IC50 in experiment [3] (setting [12]), in experiment [3] (setting [13]), in experiment [3] (setting [14]), in experiment [3] (setting [15]) and in experiment [4] was greater than 1000 nM in each case.

The record behind these values is US8486996B2, “Aroylfuranes and aroylthiophenes” (Basilea Pharmaceutica AG, priority 2006, dated 2013).
